Where “and” joins values, the source holds several entries; their conditions need not be identical. Identical values can stand only once. Like-named read-outs stand apart in the source and are kept apart here.
Tests used:
CDK12–cyclin K and DDB1 = molecular target: T1, CDK12–cyclin K and DDB1 (Homo sapiens, UniProt Q16531+Q9NYV4, K965R); experiment: TR-FRET ternary complex formation assay (compound titration); assay type: binding; conditions: for TR-FRET signal at compound concentration: replicate titrations
T1 construct: His6–CDK12 (a.a. 713–1,052); full-length or beta-propeller B domain deletion (ΔBPB: a.a. 396–705 deleted) constructs of His6–DDB1ΔBPB, StrepII–Avi–DDB1, or His6–Spy–DDB1; made in house; host or cells: Trichoplusia ni High Five insect cells (baculovirus)
Method in brief: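 A time delay of 70 μs preceded acquisition, limiting background fluorescence; the ratio of emission at 520 versus 490 nm gave the TR-FRET value.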

[1] = system: cyclin K–eGFP degradation reporter; experiment: Cyclin K reporter stability analysis (dual-color cyclin K–eGFP reporter); assay type: cell-based, human
Method in brief: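 Readout was the eGFP-to-mCherry geometric-mean ratio by flow cytometry, normalized to three DMSO controls, after 5 h drug exposure. Cells used were HEK293T–Cas9 expressing the dual-colour cyclin K–eGFP degradation reporter.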

HEK293T cells = experiment: Drug sensitivity assay (CellTiter-Glo viability) with or without MLN4924 pretreatment; assay type: cell-based, human; conditions: for EC50: Homo sapiens, HEK-293T; for Toxicity rescue: MLN4924-mediated cytotoxicity rescue, 10 µM used where n.d.
Method in brief: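 Cas9-expressing HEK293T cells receive either vehicle or 100 nM MLN4924, then compounds 2 h afterwards. After three days, luminescence-based viability is measured and calculated relative to DMSO.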

[2] = compound concentration 79.2001 nM
[3] = compound concentration 158.4 nM
[4] = compound concentration 309.6 nM
[5] = compound concentration 626.401 nM
[6] = compound concentration 1252.8 nM
[7] = compound concentration 9936.01 nM
[8] = compound concentration 20016 nM
[9] = sheet MOESM7, read-out: log TR-FRET EC50 (converted)
[10] = Supplementary Table 2, HEK293T cycK-eGFP reporter, 5 h, read-out: Cellular assays DC50
[11] = Supplementary Table 2, HEK293T viability, 72 h, compound alone, read-out: Cellular assays EC50
[12] = in vitro complex formation, 50 nM CDK12–cyclin K, 100 nM DDB1, text and figures, read-out: TR-FRET EC50
[13] = source data sheet correlations, read-out: TR-FRET EC50
[14] = source data sheet correlations, read-out: DC50

T1 sequence (Q9NYV4 713-1052 K965R): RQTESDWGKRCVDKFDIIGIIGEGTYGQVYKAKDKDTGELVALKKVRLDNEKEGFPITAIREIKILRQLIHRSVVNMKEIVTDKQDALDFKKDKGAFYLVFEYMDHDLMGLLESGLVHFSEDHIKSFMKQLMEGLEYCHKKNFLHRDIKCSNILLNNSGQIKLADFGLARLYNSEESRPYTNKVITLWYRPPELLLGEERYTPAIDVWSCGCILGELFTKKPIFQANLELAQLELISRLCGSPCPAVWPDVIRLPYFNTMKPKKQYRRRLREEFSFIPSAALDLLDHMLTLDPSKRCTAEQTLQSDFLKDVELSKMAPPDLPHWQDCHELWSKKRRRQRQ
T1 sequence (O75909 1-267 partner): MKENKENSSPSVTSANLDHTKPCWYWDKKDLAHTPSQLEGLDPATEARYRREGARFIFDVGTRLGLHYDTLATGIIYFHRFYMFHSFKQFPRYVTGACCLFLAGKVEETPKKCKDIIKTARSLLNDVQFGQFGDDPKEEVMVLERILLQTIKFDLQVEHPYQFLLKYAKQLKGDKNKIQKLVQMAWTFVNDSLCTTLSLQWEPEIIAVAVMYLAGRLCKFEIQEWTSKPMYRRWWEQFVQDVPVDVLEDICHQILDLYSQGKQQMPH
T1 sequence (Q16531 whole entry): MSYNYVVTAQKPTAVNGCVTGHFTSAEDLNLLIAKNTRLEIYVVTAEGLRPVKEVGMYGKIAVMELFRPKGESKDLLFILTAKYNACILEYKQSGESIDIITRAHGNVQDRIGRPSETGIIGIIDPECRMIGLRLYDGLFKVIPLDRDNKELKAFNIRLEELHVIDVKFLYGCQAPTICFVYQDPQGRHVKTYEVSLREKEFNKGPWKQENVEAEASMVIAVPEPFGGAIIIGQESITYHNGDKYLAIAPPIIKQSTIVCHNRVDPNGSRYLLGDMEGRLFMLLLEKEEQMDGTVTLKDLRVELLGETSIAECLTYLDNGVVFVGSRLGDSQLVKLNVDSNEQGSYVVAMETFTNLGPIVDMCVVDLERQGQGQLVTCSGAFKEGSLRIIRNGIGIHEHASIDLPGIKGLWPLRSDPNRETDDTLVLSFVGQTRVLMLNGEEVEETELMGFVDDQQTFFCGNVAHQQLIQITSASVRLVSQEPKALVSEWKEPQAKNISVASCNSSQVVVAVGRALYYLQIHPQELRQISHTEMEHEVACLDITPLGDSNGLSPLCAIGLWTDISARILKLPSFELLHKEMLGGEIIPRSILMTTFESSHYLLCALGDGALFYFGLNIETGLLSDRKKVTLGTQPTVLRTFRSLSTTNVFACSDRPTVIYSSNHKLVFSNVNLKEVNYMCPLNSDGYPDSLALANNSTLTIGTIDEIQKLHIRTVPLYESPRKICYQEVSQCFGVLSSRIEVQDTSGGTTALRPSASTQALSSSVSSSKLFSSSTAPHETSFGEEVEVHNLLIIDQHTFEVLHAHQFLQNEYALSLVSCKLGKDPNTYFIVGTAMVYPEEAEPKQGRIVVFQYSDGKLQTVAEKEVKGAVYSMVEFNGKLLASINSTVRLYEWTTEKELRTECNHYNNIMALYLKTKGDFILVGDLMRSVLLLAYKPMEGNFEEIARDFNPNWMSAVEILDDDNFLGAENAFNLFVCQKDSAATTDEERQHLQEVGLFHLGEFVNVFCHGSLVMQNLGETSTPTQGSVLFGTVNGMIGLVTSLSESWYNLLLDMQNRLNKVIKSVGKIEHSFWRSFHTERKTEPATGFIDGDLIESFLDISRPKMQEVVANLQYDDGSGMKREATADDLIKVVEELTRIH

## CC[C@H](CO)Nc1nc(NCCC2CCCCCCC2)c2ncn(C(C)C)c2n1 [DS38]
CDK12–cyclin K and DDB1; Supplementary Table 2, read-out: TR-FRET EC50 TR-FRET
  EC50: 5.74 µM
CDK12–cyclin K and DDB1; compound concentration 4.68 nM
  TR-FRET signal, individual replicate: 0.1996 and 0.2467
CDK12–cyclin K and DDB1; compound concentration 21.6 nM
  TR-FRET signal, individual replicate: 0.2088 and 0.2442
CDK12–cyclin K and DDB1; compound concentration 36 nM
  TR-FRET signal, individual replicate: 0.2151 and 0.2401
CDK12–cyclin K and DDB1; [2]
  TR-FRET signal, individual replicate: 0.2234 and 0.2572
CDK12–cyclin K and DDB1; [3]
  TR-FRET signal, individual replicate: 0.237 and 0.2667
CDK12–cyclin K and DDB1; [4]
  TR-FRET signal, individual replicate: 0.2597 and 0.2826
CDK12–cyclin K and DDB1; [5]
  TR-FRET signal, individual replicate: 0.3077 and 0.3432
CDK12–cyclin K and DDB1; [6]
  TR-FRET signal, individual replicate: 0.3992 and 0.4242
CDK12–cyclin K and DDB1; compound concentration 2448 nM
  TR-FRET signal, individual replicate: 0.5328 and 0.5897
CDK12–cyclin K and DDB1; [7]
  TR-FRET signal, individual replicate: 1.042 and 1.049
CDK12–cyclin K and DDB1; [8]
  TR-FRET signal, individual replicate: 1.225 and 1.271
CDK12–cyclin K and DDB1; [9]
  EC50: 5.74 µM
[1]; [10]
  DC50: > 10 µM
HEK293T cells; [11]
  EC50: > 10 µM
HEK293T cells; Supplementary Table 2
  Toxicity rescue: 0%

## CC[C@H](CO)Nc1nc(NCCOCc2ccccc2)c2ncn(C(C)C)c2n1 [DS40]
CDK12–cyclin K and DDB1; compound concentration 4.68 nM
  TR-FRET signal: 0.2076 and 0.2321
CDK12–cyclin K and DDB1; compound concentration 21.6 nM
  TR-FRET signal: 0.2226 and 0.2483
CDK12–cyclin K and DDB1; compound concentration 36 nM
  TR-FRET signal: 0.2561 and 0.2746
CDK12–cyclin K and DDB1; [2]
  TR-FRET signal: 0.3133 and 0.3047
CDK12–cyclin K and DDB1; [3]
  TR-FRET signal: 0.4014 and 0.4131
CDK12–cyclin K and DDB1; [4]
  TR-FRET signal: 0.5676 and 0.5799
CDK12–cyclin K and DDB1; [5]
  TR-FRET signal: 0.7977 and 0.8028
CDK12–cyclin K and DDB1; [6]
  TR-FRET signal: 1.088 and 1.118
CDK12–cyclin K and DDB1; compound concentration 2448 nM
  TR-FRET signal: 1.44 and 1.508
CDK12–cyclin K and DDB1; [7]
  TR-FRET signal: 1.852 and 2.056
CDK12–cyclin K and DDB1; [8]
  TR-FRET signal: 1.876 and 2.063
CDK12–cyclin K and DDB1; [9]
  EC50: 1.3 µM
[1]; [10]
  DC50: > 10 µM
HEK293T cells; [11]
  EC50: > 10 µM
HEK293T cells; Supplementary Table 2
  Toxicity rescue: 0%

## CC[C@H](CO)Nc1nc(NCc2ccn(-c3cccc(Cl)c3)n2)c2ncn(C(C)C)c2n1 [DS43]
CDK12–cyclin K and DDB1; compound concentration 0.468 nM
  TR-FRET signal at compound concentration: 0.2854 and 0.3016
CDK12–cyclin K and DDB1; compound concentration 2.16 nM
  TR-FRET signal at compound concentration: 0.3338 and 0.3545
CDK12–cyclin K and DDB1; compound concentration 3.6 nM
  TR-FRET signal at compound concentration: 0.4308 and 0.466
CDK12–cyclin K and DDB1; compound concentration 7.92001 nM
  TR-FRET signal at compound concentration: 0.6201 and 0.666
CDK12–cyclin K and DDB1; compound concentration 15.84 nM
  TR-FRET signal at compound concentration: 0.9968 and 1.0413
CDK12–cyclin K and DDB1; compound concentration 30.96 nM
  TR-FRET signal at compound concentration: 1.655 and 1.7184
CDK12–cyclin K and DDB1; compound concentration 62.6401 nM
  TR-FRET signal at compound concentration: 2.415 and 2.607
CDK12–cyclin K and DDB1; compound concentration 125.28 nM
  TR-FRET signal at compound concentration: 3.042 and 3.307
CDK12–cyclin K and DDB1; compound concentration 244.8 nM
  TR-FRET signal at compound concentration: 3.43 and 3.794
CDK12–cyclin K and DDB1; compound concentration 993.601 nM
  TR-FRET signal at compound concentration: 3.717 and 4.015
CDK12–cyclin K and DDB1; compound concentration 2001.6 nM
  TR-FRET signal at compound concentration: 3.6778 and 3.923
CDK12–cyclin K and DDB1; [12]
  EC50: 0.044 ± 0.002 µM
CDK12–cyclin K and DDB1; [9]
  EC50: 0.0437 µM
CDK12–cyclin K and DDB1; [13]
  EC50: 0.0437 µM
[1]; [14]
  DC50: 0.075 µM
HEK293T cells; Supplementary Fig. 5, HEK293T, CellTiter Glo, 72h, pre-treatment with 100 nM MLN4924, read-out: Viability EC50, with MLN4924
  EC50: 15.5 µM
HEK293T cells; [11]
  EC50: 1.26 µM
HEK293T cells; PCA input
  % MLN4924 rescue: 649%
HEK293T cells; Supplementary Table 2
  Toxicity rescue: 697%

## CC[C@H](CO)Nc1nc(NCc2ccc(-c3ccncc3)cc2)c2ncn(C(C)C)c2n1 [DS44]
CDK12–cyclin K and DDB1; compound concentration 0.468 nM, raw titration data
  TR-FRET signal at compound concentration 0.468 nM: 0.2822 and 0.2969 and 0.203 and 0.2011
CDK12–cyclin K and DDB1; compound concentration 2.16 nM, raw titration data
  TR-FRET signal at compound concentration 2.16 nM: 0.3572 and 0.3626 and 0.2614 and 0.2567
CDK12–cyclin K and DDB1; compound concentration 3.6 nM, raw titration data
  TR-FRET signal at compound concentration 3.6 nM: 0.4873 and 0.5297 and 0.3719 and 0.3575
CDK12–cyclin K and DDB1; compound concentration 7.92001 nM, raw titration data
  TR-FRET signal at compound concentration 7.92001 nM: 0.7272 and 0.8095 and 0.5738 and 0.5707
CDK12–cyclin K and DDB1; compound concentration 15.84 nM, raw titration data
  TR-FRET signal at compound concentration 15.84 nM: 1.129 and 1.28 and 0.9406 and 0.8919
CDK12–cyclin K and DDB1; compound concentration 30.96 nM, raw titration data
  TR-FRET signal at compound concentration 30.96 nM: 1.72 and 1.9375 and 1.384 and 1.358
CDK12–cyclin K and DDB1; compound concentration 62.6401 nM, raw titration data
  TR-FRET signal at compound concentration 62.6401 nM: 2.307 and 2.567 and 2.074 and 2.11
CDK12–cyclin K and DDB1; compound concentration 125.28 nM, raw titration data
  TR-FRET signal at compound concentration 125.28 nM: 2.789 and 3.0284 and 2.71 and 2.759
CDK12–cyclin K and DDB1; compound concentration 244.8 nM, raw titration data
  TR-FRET signal at compound concentration 244.8 nM: 3 and 3.3475 and 2.848 and 3.078
CDK12–cyclin K and DDB1; compound concentration 993.601 nM, raw titration data
  TR-FRET signal at compound concentration 993.601 nM: 3.126 and 3.521 and 3.221 and 3.228
CDK12–cyclin K and DDB1; compound concentration 2001.6 nM, raw titration data
  TR-FRET signal at compound concentration 2001.6 nM: 3.1032 and 3.41 and 3.238 and 3.193
CDK12–cyclin K and DDB1; [12]
  EC50: 0.036 ± 0.002 µM
CDK12–cyclin K and DDB1; [9]
  EC50: 0.0356 µM
CDK12–cyclin K and DDB1; [13]
  EC50: 0.0356 µM
[1]; [14]
  DC50: 0.062 µM
HEK293T cells; [11]
  EC50: 0.3 µM
HEK293T cells; Supplementary Table 2
  Toxicity rescue: 857%

Reference: article PMC10746543, “Design principles for cyclin K molecular glue degraders” (Nature Chemical Biology, 2023)
